Measured values taken from patent US20070149508A1, “Six membered heteroaromatic inhibitors targeting resistant kinase mutations” (TargeGen, Inc., priority 2005, published 2007).
Where a name gives a salt, the structure may show the parent alone.

Legend:
[1] = target: T1, Abl (T315I) (Homo sapiens, UniProt P00519, T315I); assay: Abl (T315I) Kinase Assay (KinaseGlo luminescent detection of residual ATP); type: biochemical; conditions: Abl (T315I) IC50 (nM), Abl (T315I) (Upstate, 17 ng/well), Abltide 100 uM, ATP 500 nM, 60 minutes at 37° C.
T1 construct: purchased Upstate
Description: The assay was performed similarly to the Abl kinase assay. Abl (T315I) (Upstate, 17 ng/well); Abltide substrate (100 uM) and ATP (500 nM) comprised the reaction mixture. Compound was similarly diluted, and the reaction plate was incubated for 60 minutes at 37° C.

[2] = target: Abl kinase (Homo sapiens, UniProt P00519); assay: biochemical; conditions: Abl IC50 (nM), Abl kinase (Invitrogen, 20 ng/well), Abltide 100 μM, ATP 500 nM, 37° C. for 60 minutes, top concentration 10 uM

Row | Compound | IC50 [1] [nM] | IC50 [2] [nM]
1 | O=C(Nc1nc2ccc(/C=C/c3cnc(Nc4ccc(S(=O)(=O)C5CCNCC5)cc4)nc3)cc2s1)c1cccc(C(F)(F)F)c1 [N-(6-((E)-2-(2-(4-(piperidin-4-ylsulfonyl)phenylamino)pyrimidin-5-(trifluoromethyl)benzamide Hydrochloride] | 332 | 967
2 | O=C(Nc1nc2ccc(/C=C/c3cnc(Nc4ccc(S(=O)(=O)C5CCNCC5)cc4)nc3)cc2s1)c1cccc(F)c1 [N-(6-((E)-2-(2-(4-(piperidin-4-ylsulfonyl)phenylamino)pyrimidin-5-yl)vinyl)benzo[d]thiazol-2-yl)-3-fluorobenzamide Hydrochloride] | 2740 | 629
3 | C=Cc1cnc(Nc2ccc(S(=O)(=O)N3CCNCC3)c(N3CCNCC3)c2)nc1 [N-[3-piperazin-1-yl-4-(piperazin-1-ylsulfonyl)phenyl]-5-vinylpyrimidin-2-amine trifluoroacetic acid salt] | 4640 | 22200
4 | O=S(=O)(c1ccc(Nc2ncc(/C=C/c3ccc(-c4cn[nH]c4)cc3)cn2)cc1)N1CCNCC1 [N-[4-(piperazin-1-ylsulfonyl)phenyl]-5-{(E)-2-[4-(1H-pyrazol-4-yl)phenyl]vinyl}pyrimidin-2-amine] | 1230 | 3800
5 | O=C(Nc1ccc(Cl)c(/C=C/c2cnc(Nc3ccc(S(=O)(=O)C4CCNCC4)cc3)nc2)c1)c1cccc(C(F)(F)F)c1 [N-[4-Chloro-3-(2-{2-[4-(piperidine-4-sulfonyl)-phenylamino]-pyrimidin-5-yl}-vinyl)-phenyl]-3-trifluoromethyl-benzamide] | 2000 | 12
6 | O=C(Nc1nc2ccc(/C=C/c3cnc(Nc4ccc(S(=O)(=O)N5CCNCC5)cc4)nc3)cc2s1)c1cccc(C(F)(F)F)c1 [N-[6-(2-{2-[4-(Piperazine-1-sulfonyl)-phenylamino]-pyrimidin-5-yl]-vinyl)-benzothiazol-2-yI]-3-trifluoromethyl-benzamide] | 5600 | 5110
7 | NC1CCN(S(=O)(=O)c2ccc(Nc3ncc(/C=C/c4cccc5[nH]ccc45)cn3)cc2)CC1 [N-{4-[(4-aminopiperidin-1-yl)sulfonyl]phenyl}-5-[(E)-2-(1H-indol-4-yl)vinyl]pyrimidin-2-amine] | 347 | 13
8 | NC1Cc2ccc(/C=C/c3cnc(Nc4ccc(S(=O)(=O)N5CCC(CO)CC5)cc4)nc3)cc2C1 (stereo not shown) [[1-(4-{5-[2-(2-Amino-indan-5-yl)-vinyl]-pyrimidin-2-ylamino}-benzenesulfonyl)-piperidin-4-yl]-methanol] | 2790 | 13700
9 | O=S(=O)(c1ccc(Nc2ncc(/C=C/c3cccc4[nH]ncc34)cn2)cc1)N1CCNCC1 [{5-[2-(1H-Indazol-4-yl)-vinyl]-pyrimidin-2-yl}-[4-(piperazine-1-sulfonyl)-phenyl]-amine] | 289 | 44
10 | C(=C\c1cccc2[nH]ccc12)/c1cnc(Nc2cccc(N3CCNCC3)c2)nc1 [{5-[2-(1H-Indol-4-yl)-vinyl]-pyrimidin-2-yl}-(3-piperazin-1-yl-phenyl)-amine] | 2600 | 86
11 | C(=C\c1cccc2[nH]ccc12)/c1cnc(Nc2ccc(C3CCNCC3)cc2)nc1 [{5-[2-(1H-Indol-4-yl)-vinyl]-pyrimidin-2-yl}-(4-piperidin-4-yl-phenyl)-amine] | 1320 | 42
12 | O=S(=O)(CCCN1CCNCC1)c1ccc(Nc2ncc(/C=C/c3cccc4[nH]ccc34)cn2)cc1 [{5-[2-(1H-Indol-4-yl)-vinyl]-pyrimidin-2-yl}-[4-(3-piperazin-1-yl-propane-1-sulfonyl)-phenyl]-amine] | 488 | 54
13 | COc1cccc(/C=C/c2cnc(Nc3ccc(S(=O)(=O)C4CCNCC4)cc3)nc2)c1 [{5-[2-(3-Methoxy-phenyl)-vinyl]-pyrimidin-2-yl}-[4-piperidine-4-sulfonyl)-phenyl]-amine] | 664 | 172

These reach a lower IC50 [1]. Values come first.

Row | IC50 [1] [nM] | IC50 [2] [nM] | Compound
14 | 262 | 163 | O=S(=O)(c1ccc(Nc2ncc(/C=C/c3ccc4[nH]ncc4c3)cn2)cc1)C1CCNCC1 [{5-[2-(1H-Indazol-5-yl)-vinyl]-pyrimidin-2-yl}-[4-(piperidine-4-sulfonyl)-phenyl]-amine]
15 | 195 | 13 | O=S(=O)(c1ccc(Nc2ncc(/C=C/c3cccc4[nH]ccc34)cn2)cc1)N1CCCNCC1 [[4-([1,4]Diazepane-1-sulfonyl)-phenyl]-{5-[2-(1H-indol-4-yl)-vinyl]-pyrimidin-2-yl}-amine]
16 | 184 | 12 | O=S(=O)(c1ccc(Nc2ncc(/C=C/c3cccc4[nH]ncc34)cn2)cc1)N1CCCNCC1 [[4-([1,4]Diazepane-1-sulfonyl)-phenyl]-{5-[2-(1H-indazol-4-yl)-vinyl]-pyrimidin-2-yl}-amine]
17 | 182 | 25 | CN(C)CCN(C1CCNCC1)S(=O)(=O)c1ccc(Nc2ncc(/C=C/c3cccc4[nH]ccc34)cn2)cc1 [N-[2-(dimethylamino)ethyl]-4-({5-[(E)-2-(1H-indol-4-yl)vinyl]pyrimidin-2-yl}amino)-N-piperidin-4-ylbenzenesulfonamide]
18 | 173 | 5.1 | NC1CCN(S(=O)(=O)c2ccc(Nc3ncc(/C=C/c4cccc5[nH]ncc45)cn3)cc2)CC1 [N-{4-[(4-aminopiperidin-1-yl)sulfonyl]phenyl}-5-[(E)-2-(1H-indazol-4-yl)vinyl]pyrimidin-2-amine]
19 | 163 | 38 | O=S(=O)(c1ccc(Nc2ncc(/C=C/c3ccnc4[nH]ccc34)cn2)cc1)C1CCNCC1 [N-[4-(piperidin-4-ylsulfonyl)phenyl]-5-[(E)-2-(1H-pyrrolo[2,3-b]pyridin-4-yl)vinyl]pyrimidin-2-amine]
20 | 138 | 37 | O=S(=O)(c1ccc(Nc2ncc(/C=C/c3ccc4[nH]ccc4c3)cn2)cc1)C1CCNCC1 [{5-[2-(1H-Indol-5-yl)-vinyl]-pyrimidin-2-yl}-[4-(piperidine-4-sulfonyl)-phenyl]-amine]
21 | 113 | 10 | CN(C)CCN(C1CCNCC1)S(=O)(=O)c1ccc(Nc2ncc(/C=C/c3cccc4[nH]ncc34)cn2)cc1 [N-[2-(dimethylamino)ethyl]-4-({5-[(E)-2-(1H-indazol-4-yl)vinyl]pyrimidin-2-yl}amino)-N-piperidin-4-ylbenzenesulfonamide]
22 | 96 | 113 | NC(=O)CN(C1CCNCC1)S(=O)(=O)c1ccc(Nc2ncc(/C=C/c3ccc4nc(N)sc4c3)cn2)cc1 [[4-({5-[(E)-2-(2-amino-1,3-benzothiazol-6-yl)vinyl]pyrimidin-yl}amino)phenyl]sulfonyl}-N2-piperidin-4-ylglycinamide]
23 | 89 | 269 | O=S(=O)(c1ccc(Nc2ncc(/C=C/c3cc(C(F)(F)F)cc4[nH]nnc34)cn2)cc1)N1CCNCC1 [[4-(Piperazine-1-sulfonyl)-phenyl]-{5-[2-(6-trifluoromethyl-1H-benzotriazol-4-yl)-vinyl]-pyrimidin-2-yl}-amine]
24 | 67 | 59 | O=S(=O)(c1ccc(Nc2ncc(/C=C/c3cc(C(F)(F)F)cc4[nH]nnc34)cn2)cc1)N1CCCNCC1 [[4-([1,4]Diazepane-1-sulfonyl)-phenyl]-{5-[2-(6-trifluoromethyl-1H-benzotriazol-4-yl)-vinyl]-pyrimidin-2-yl}-amine]
25 | 21 | 61 | O=S(=O)(c1ccc(Nc2ncc(/C=C/c3cc(Cl)cc4[nH]nnc34)cn2)cc1)N1CCNCC1 [[4-(Piperazine-1-sulfonyl)-phenyl]-{5-[2-(6-chloro-1H-benzotriazol-4-yl)-vinyl]-pyrimidin-2-yl}-amine]
26 | 16 | 41 | O=S(=O)(c1ccc(Nc2ncc(/C=C/c3cc(Cl)cc4[nH]nnc34)cn2)cc1)N1CCCNCC1 [[4-([1,4]Diazepane-1-sulfonyl)-phenyl]-{5-[2-(6-chloro-1H-benzotriazol-4-yl)-vinyl]-pyrimidin-2-yl}-amine]
